The source made the active and inactive calls. The rule behind the calls is not given here.
What was measured:
[1] = (§1) Cytotoxicity against human thyroid carcinoma cells assessed as mortality; assay type: functional
[2] = organism: Homo sapiens; experiment: as §1; assay type: functional

| SMILES | Activity [1] [%] | Activity [2] |
| --- | --- | --- |
| CC1(C)CCC[C@]2(C)[C@H]3CC(=O)[C@]4(C)[C@@H]5C(=CC[C@H]4[C@]3(C)CC[C@@H]12)CO[C@H]5O | 25 |  |
| CC1(C)CCC[C@]2(C)[C@H]3C[C@@H](O)[C@]4(C)[C@@H]5C(=CC[C@H]4[C@]3(C)CC[C@@H]12)CO[C@H]5O |  | inactive |
| CC(=O)O[C@@H]1OC=C2[C@@H](OC(C)=O)C[C@H]3[C@]4(C)CC[C@H]5C(C)(C)CCC[C@]5(C)[C@H]4C[C@@H](O)[C@]3(C)[C@H]21 [HETERONEMIN] | 30 |  |

Reference: ChEMBL document CHEMBL1144122, “New scalaranes from the nudibranch Glossodoris atromarginata and its sponge prey” (1999)
